One assay deals with T1, CK1α (Homo sapiens, UniProt P48729+Q96SW2).
T1 construct: CSNK1A1-HiBit KI HEK293(LgBit) Cells; host or cells: HEK293(LgBit) knock-in cells
In words: HiBiT degradation assay, CK1α, Procedure A. In kind it is cell-based. The settings on record: six hours incubation. In a few lines:
(§1)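 Cells in DMEM + 10% FBS were treated with compound in a ten-point dose response from 10 μM to 0.005 μM (0.1% DMSO) for six hours at 37° C. Lysis with Nano-Glo HiBiT detection reagent followed, with luminescence read. DC50 and Ymin came from a 4-parameter fit.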
(HiBiT is a short tag that completes a luciferase, so light tracks the accessible tagged protein.)

Another assay deals with GSPT1 (Homo sapiens, UniProt P15170+Q96SW2). In words: HiBiT degradation assay, GSPT1, Procedure A. In kind it is cell-based. Further details: HiBit-GSPT1 KI HEK293(LgBit) Cells; host or cells: HEK293(LgBit) knock-in cells. The settings on record: six hours incubation. In a few lines:
as §1

Sequence of GSPT1 (P15170 whole entry): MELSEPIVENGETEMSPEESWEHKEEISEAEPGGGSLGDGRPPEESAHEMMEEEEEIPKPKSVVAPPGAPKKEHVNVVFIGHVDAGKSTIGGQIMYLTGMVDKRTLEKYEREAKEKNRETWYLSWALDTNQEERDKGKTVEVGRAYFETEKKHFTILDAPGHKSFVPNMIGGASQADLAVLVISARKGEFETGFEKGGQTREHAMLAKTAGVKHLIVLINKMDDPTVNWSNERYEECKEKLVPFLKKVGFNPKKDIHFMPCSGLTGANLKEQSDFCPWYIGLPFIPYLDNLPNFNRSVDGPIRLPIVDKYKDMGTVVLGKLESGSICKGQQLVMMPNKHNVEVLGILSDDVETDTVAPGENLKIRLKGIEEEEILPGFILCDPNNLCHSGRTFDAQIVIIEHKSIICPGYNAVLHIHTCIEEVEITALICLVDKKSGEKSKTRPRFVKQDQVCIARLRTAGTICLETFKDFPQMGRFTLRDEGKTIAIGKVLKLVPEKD
Sequence of GSPT1 (Q96SW2 whole entry): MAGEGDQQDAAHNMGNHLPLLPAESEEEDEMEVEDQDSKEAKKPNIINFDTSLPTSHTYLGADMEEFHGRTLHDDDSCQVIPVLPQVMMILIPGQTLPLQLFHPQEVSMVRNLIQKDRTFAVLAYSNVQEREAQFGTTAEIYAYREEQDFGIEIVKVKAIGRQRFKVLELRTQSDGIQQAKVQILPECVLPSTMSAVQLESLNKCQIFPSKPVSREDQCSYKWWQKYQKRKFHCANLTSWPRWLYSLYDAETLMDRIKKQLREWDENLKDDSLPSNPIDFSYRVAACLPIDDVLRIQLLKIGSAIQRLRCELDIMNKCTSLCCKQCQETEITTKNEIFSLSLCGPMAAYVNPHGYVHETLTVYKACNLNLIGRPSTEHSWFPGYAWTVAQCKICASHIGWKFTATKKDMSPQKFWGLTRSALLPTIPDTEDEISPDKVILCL
Sequence of GSPT1 (Q16531 whole entry partner): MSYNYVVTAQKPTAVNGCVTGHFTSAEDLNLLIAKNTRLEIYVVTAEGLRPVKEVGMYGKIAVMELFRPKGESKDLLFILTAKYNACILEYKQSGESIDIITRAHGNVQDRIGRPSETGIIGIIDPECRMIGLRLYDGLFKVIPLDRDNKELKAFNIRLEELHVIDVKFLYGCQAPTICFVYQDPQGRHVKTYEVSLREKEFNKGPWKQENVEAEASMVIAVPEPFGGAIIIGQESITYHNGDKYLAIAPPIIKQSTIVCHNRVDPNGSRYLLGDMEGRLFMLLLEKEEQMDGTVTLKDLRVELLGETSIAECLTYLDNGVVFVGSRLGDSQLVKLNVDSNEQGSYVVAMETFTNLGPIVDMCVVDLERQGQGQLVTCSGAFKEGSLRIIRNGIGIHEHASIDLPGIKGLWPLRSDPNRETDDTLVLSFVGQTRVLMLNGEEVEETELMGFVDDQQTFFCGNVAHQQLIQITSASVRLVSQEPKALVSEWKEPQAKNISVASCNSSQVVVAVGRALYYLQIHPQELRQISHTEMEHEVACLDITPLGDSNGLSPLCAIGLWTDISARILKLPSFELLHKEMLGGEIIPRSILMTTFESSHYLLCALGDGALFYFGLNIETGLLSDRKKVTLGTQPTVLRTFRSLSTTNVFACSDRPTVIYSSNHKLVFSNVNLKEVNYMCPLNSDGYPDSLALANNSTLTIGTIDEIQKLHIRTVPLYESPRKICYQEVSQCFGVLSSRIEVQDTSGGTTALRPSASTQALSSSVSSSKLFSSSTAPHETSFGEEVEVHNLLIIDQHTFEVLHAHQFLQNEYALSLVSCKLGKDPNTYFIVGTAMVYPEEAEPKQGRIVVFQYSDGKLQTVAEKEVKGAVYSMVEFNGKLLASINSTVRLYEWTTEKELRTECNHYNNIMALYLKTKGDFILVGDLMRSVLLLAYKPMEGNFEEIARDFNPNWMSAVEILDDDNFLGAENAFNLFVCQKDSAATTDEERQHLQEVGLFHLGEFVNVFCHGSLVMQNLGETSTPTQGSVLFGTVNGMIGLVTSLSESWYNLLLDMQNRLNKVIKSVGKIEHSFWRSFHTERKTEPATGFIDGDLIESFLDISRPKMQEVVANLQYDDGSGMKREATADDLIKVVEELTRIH
T1 sequence (P48729 whole entry): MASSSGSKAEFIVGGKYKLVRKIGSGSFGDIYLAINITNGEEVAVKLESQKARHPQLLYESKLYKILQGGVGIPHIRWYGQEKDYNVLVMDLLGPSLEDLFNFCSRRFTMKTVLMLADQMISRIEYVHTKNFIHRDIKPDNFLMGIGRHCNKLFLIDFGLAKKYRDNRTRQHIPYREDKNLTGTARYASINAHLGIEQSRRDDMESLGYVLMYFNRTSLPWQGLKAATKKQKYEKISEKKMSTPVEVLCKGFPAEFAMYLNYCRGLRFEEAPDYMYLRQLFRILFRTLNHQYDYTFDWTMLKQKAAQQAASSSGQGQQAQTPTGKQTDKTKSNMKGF
T1 sequence (Q96SW2 whole entry): as the sequence (Q96SW2 whole entry) above
T1 sequence (Q16531 whole entry partner): as the sequence (Q16531 whole entry partner) above

On to `COc1ccc(-c2c(-c3ccc4c(c3)CN(C3CCC(=O)NC3=O)C4=O)ncn2C)c(F)c1` (stereo not shown) [Example 189], for which, at CK1α, the “CK1α Ymin” value was “C (C = 0-10% remaining)” and the 50% degradation concentration (DC50) (in general, the concentration at which degradation of the target reaches its halfway point) was under 25 nM. Also, at GSPT1, the DC50 was under 25 nM and the “GSPT1 Ymin” value is given as “E (E = >25-75% remaining)”.

With `COc1cccc(-c2c(-c3ccc4c(c3)CN(C3CCC(=O)NC3=O)C4=O)ncn2C)c1F` (stereo not shown) [Example 190], at CK1α, the “CK1α Ymin” value is reported as “E (E = >25-75% remaining)” and the DC50 was under 25 nM. In addition, on GSPT1, the DC50 is under 25 nM and the “GSPT1 Ymin” value is given as “E (E = >25-75% remaining)”.

`COc1ccc(F)cc1-c1c(-c2ccc3c(c2)CN(C2CCC(=O)NC2=O)C3=O)ncn1C` (stereo not shown) [Example 191]: on CK1α, the “CK1α Ymin” value is on record as “E (E = >25-75% remaining)” and the DC50 is under 25 nM. On GSPT1, the DC50 was under 25 nM and the “GSPT1 Ymin” value is “E (E = >25-75% remaining)”.

In the case of `COc1cc(F)ccc1-c1c(-c2ccc3c(c2)CN(C2CCC(=O)NC2=O)C3=O)ncn1C` (stereo not shown) [Example 192], on CK1α, the “CK1α Ymin” value is recorded as “E (E = >25-75% remaining)” and the DC50 was under 25 nM. For the same compound, on GSPT1, the DC50 was under 25 nM and the “GSPT1 Ymin” value is reported as “E (E = >25-75% remaining)”.

As to `COc1ccc(F)c(-c2c(-c3ccc4c(c3)CN(C3CCC(=O)NC3=O)C4=O)ncn2C)c1` (stereo not shown) [Example 193], on CK1α, the “CK1α Ymin” value is listed as “D (D = >10- 25% remaining)” and the DC50 was under 25 nM. On GSPT1, the DC50 was under 25 nM and the “GSPT1 Ymin” value is “F (F = >75-100% remaining)”.

With `COc1ccc(-c2c(-c3ccc4c(c3)CN(C3CCC(=O)NC3=O)C4=O)ncn2C)cc1F` (stereo not shown) [Example 194], on CK1α, the “CK1α Ymin” value is given as “C (C = 0-10% remaining)” and the DC50 is under 25 nM. Further, at GSPT1, the DC50 is under 25 nM and the “GSPT1 Ymin” value is “E (E = >25-75% remaining)”.

On to `COc1c(F)cccc1-c1c(-c2ccc3c(c2)CN(C2CCC(=O)NC2=O)C3=O)ncn1C` (stereo not shown) [Example 195], for which, on CK1α, the “CK1α Ymin” value is reported as “D (D = >10- 25% remaining)” and the DC50 is under 25 nM. Also, on GSPT1, the DC50 was under 25 nM and the “GSPT1 Ymin” value is given as “E (E = >25-75% remaining)”.

For the compound `Cc1ccc(Cl)cc1-c1c(-c2ccc3c(c2)CN(C2CCC(=O)NC2=O)C3=O)ncn1C` (stereo not shown) [Example 196], at CK1α, the “CK1α Ymin” value is reported as “E (E = >25-75% remaining)” and the DC50 is under 25 nM. Moreover, on GSPT1, the DC50 is under 25 nM and the “GSPT1 Ymin” value is on record as “F (F = >75-100% remaining)”.

With `Cc1ccc(-c2c(-c3ccc4c(c3)CN(C3CCC(=O)NC3=O)C4=O)ncn2C)cc1Cl` (stereo not shown) [Example 197], at CK1α, the “CK1α Ymin” value is given as “E (E = >25-75% remaining)” and the DC50 is under 25 nM. Also, on GSPT1, the DC50 is under 25 nM and the “GSPT1 Ymin” value is recorded as “E (E = >25-75% remaining)”.

Take `Cc1ccc(-c2c(-c3ccc4c(c3)CN(C3CCC(=O)NC3=O)C4=O)ncn2C)c(Cl)c1` (stereo not shown) [Example 198]: on CK1α, the “CK1α Ymin” value is “C (C = 0-10% remaining)” and the DC50 was under 25 nM. Also, at GSPT1, the DC50 was under 25 nM and the “GSPT1 Ymin” value is on record as “E (E = >25-75% remaining)”.

With `Cc1ccc(Cl)c(-c2c(-c3ccc4c(c3)CN(C3CCC(=O)NC3=O)C4=O)ncn2C)c1` (stereo not shown) [Example 199], on CK1α, the “CK1α Ymin” value is reported as “D (D = >10- 25% remaining)” and the DC50 is under 25 nM. Further, at GSPT1, the DC50 was under 25 nM and the “GSPT1 Ymin” value is recorded as “F (F = >75-100% remaining)”.

For `Cc1cc(-c2c(-c3ccc4c(c3)CN(C3CCC(=O)NC3=O)C4=O)ncn2C)ccc1Cl` (stereo not shown) [Example 200], on CK1α, the “CK1α Ymin” value is recorded as “D (D = >10- 25% remaining)” and the DC50 was under 25 nM. For the same compound, at GSPT1, the DC50 was under 25 nM and the “GSPT1 Ymin” value is reported as “E (E = >25-75% remaining)”.

For `Cc1cc(Cl)cc(-c2c(-c3ccc4c(c3)CN(C3CCC(=O)NC3=O)C4=O)ncn2C)c1` (stereo not shown) [Example 201], at CK1α, the “CK1α Ymin” value is recorded as “E (E = >25-75% remaining)” and the DC50 is under 25 nM. At GSPT1, the DC50 is at least 25 nM and the “GSPT1 Ymin” value is “F (F = >75-100% remaining)”.

With `Cn1cnc(-c2ccc3c(c2)CN(C2CCC(=O)NC2=O)C3=O)c1-c1cccc(C(F)F)c1` (stereo not shown) [Example 202], on CK1α, the “CK1α Ymin” value is “D (D = >10- 25% remaining)” and the DC50 was under 25 nM. Also, on GSPT1, the DC50 was at least 25 nM and the “GSPT1 Ymin” value is reported as “F (F = >75-100% remaining)”.

For the compound `Cn1cnc(-c2ccc3c(c2)CN(C2CCC(=O)NC2=O)C3=O)c1-c1ccc(C(F)F)cc1` (stereo not shown) [Example 203], on CK1α, the “CK1α Ymin” value is “D (D = >10- 25% remaining)” and the DC50 was under 25 nM. Moreover, at GSPT1, the DC50 was at least 25 nM and the “GSPT1 Ymin” value is reported as “E (E = >25-75% remaining)”.

`Cn1cnc(-c2ccc3c(c2)CN(C2CCC(=O)NC2=O)C3=O)c1-c1cc(F)cc(Cl)c1` (stereo not shown) [Example 204]: at CK1α, the “CK1α Ymin” value was “E (E = >25-75% remaining)” and the 50% degradation concentration (DC50) was under 25 nM. On GSPT1, the DC50 was at least 25 nM and the “GSPT1 Ymin” value is recorded as “F (F = >75-100% remaining)”.

As for `O=C1CCC(N2Cc3cc(-c4cncn4-c4ccccc4)ccc3C2=O)C(=O)N1` (stereo not shown) [Example 205, 3-(1-Oxo-5-(1-phenyl-1H-imidazol-5-yl)isoindolin-2-yl)piperidine-2,6-dione], on CK1α, the “CK1α Ymin” value is listed as “E (E = >25-75% remaining)” and the DC50 was under 25 nM. For the same compound, at GSPT1, the DC50 was at least 25 nM and the “GSPT1 Ymin” value is “F (F = >75-100% remaining)”.

Regarding `O=C1CCC(N2Cc3cc(-c4conc4-c4ccccc4)ccc3C2=O)C(=O)N1` (stereo not shown) [Example 206, 3-(1-Oxo-5-(3-phenylisoxazol-4-yl)isoindolin-2-yl)piperidine-2,6-dione], on CK1α, the “CK1α Ymin” value is recorded as “E (E = >25-75% remaining)” and the DC50 is at least 25 nM. On GSPT1, the DC50 was at least 25 nM and the “GSPT1 Ymin” value is recorded as “F (F = >75-100% remaining)”.

For `[2H]C([2H])([2H])n1ncc(-c2ccc3c(c2)CN(C2CCC(=O)NC2=O)C3=O)c1-c1ccccc1` (stereo not shown) [Example 207, 3-(5-(1-(Methyl-d3)-5-phenyl-1H-pyrazol-4-yl)-1-oxoisoindolin-2-yl)piperidine-2,6-dione], at CK1α, the “CK1α Ymin” value is “D (D = >10- 25% remaining)” and the DC50 was under 25 nM. Besides, at GSPT1, the 50% degradation concentration (DC50) was at least 25 nM and the “GSPT1 Ymin” value was “F (F = >75-100% remaining)”.

Consider `O=C1CCC(N2Cc3cc(-c4cnn(CC(F)(F)F)c4-c4ccccc4)ccc3C2=O)C(=O)N1` (stereo not shown) [Example 208, 3-(1-Oxo-5-(5-phenyl-1-(2,2,2-trifluoroethyl)-1H-pyrazol-4-yl)isoindolin-2-yl)piperidine-2,6-dione], for which, on CK1α, the “CK1α Ymin” value is “D (D = >10- 25% remaining)” and the DC50 is under 25 nM. Also, at GSPT1, the half-maximal degradation concentration (DC50) is at least 25 nM and the “GSPT1 Ymin” value is listed as “F (F = >75-100% remaining)”.

With `Cn1cc(-c2ccc3c(c2)CN(C2CCC(=O)NC2=O)C3=O)nc1-c1ccc(C(F)(F)F)cc1` (stereo not shown) [Example 209, 3-(5-(1-methyl-2-(4-(trifluoromethyl)phenyl)-1H-imidazol-4-yl)-1-oxoisoindolin-2-yl)piperidine-2,6-dione], at CK1α, the “CK1α Ymin” value is “C (C = 0-10% remaining)” and the DC50 is under 25 nM. Also, on GSPT1, the DC50 is at least 25 nM and the “GSPT1 Ymin” value is “F (F = >75-100% remaining)”.

With `O=C1CCC(N2Cc3cc(-c4cc(-c5ccccc5)[nH]n4)ccc3C2=O)C(=O)N1` (stereo not shown) [Example 210, 3-(1-Oxo-5-(5-phenyl-1H-pyrazol-3-yl)isoindolin-2-yl)piperidine-2,6-dione], at CK1α, the “CK1α Ymin” value is reported as “D (D = >10- 25% remaining)” and the DC50 is under 25 nM. Moreover, on GSPT1, the DC50 was at least 25 nM and the “GSPT1 Ymin” value is listed as “F (F = >75-100% remaining)”.

Consider `Cc1c(-c2ccc3c(c2)CN(C2CCC(=O)NC2=O)C3=O)nn(C)c1-c1ccccc1` (stereo not shown) [Example 211, 3-(5-(1,4-Dimethyl-5-phenyl-1H-pyrazol-3-yl)-1-oxoisoindolin-2-yl)piperidine-2,6-dione], for which, on CK1α, the “CK1α Ymin” value is “C (C = 0-10% remaining)” and the DC50 is under 25 nM. For the same compound, on GSPT1, the DC50 is at least 25 nM and the “GSPT1 Ymin” value was “F (F = >75-100% remaining)”.

With `Cc1cc(-c2c(-c3ccc4c(c3)CN(C3CCC(=O)NC3=O)C4=O)cnn2C)c(C)s1` (stereo not shown) [Example 213], on CK1α, the “CK1α Ymin” value is recorded as “E (E = >25-75% remaining)” and the DC50 is under 25 nM. In addition, at GSPT1, the DC50 is at least 25 nM and the “GSPT1 Ymin” value is reported as “F (F = >75-100% remaining)”.

In the case of `Cn1ncc(-c2ccc3c(c2)CN(C2CCC(=O)NC2=O)C3=O)c1-c1ccc(CN2CCOCC2)cc1` (stereo not shown) [Example 214], on CK1α, the “CK1α Ymin” value is “E (E = >25-75% remaining)” and the DC50 was under 25 nM. Further, at GSPT1, the DC50 is at least 25 nM and the “GSPT1 Ymin” value is listed as “F (F = >75-100% remaining)”.

As for `Cc1ccc(-c2c(-c3ccc4c(c3)CN(C3CCC(=O)NC3=O)C4=O)cnn2C)s1` (stereo not shown) [Example 215], at CK1α, the “CK1α Ymin” value is listed as “D (D = >10- 25% remaining)” and the DC50 is under 25 nM. For the same compound, at GSPT1, the DC50 is at least 25 nM and the “GSPT1 Ymin” value is “F (F = >75-100% remaining)”.

Take `Cn1ncc(-c2ccc3c(c2)CN(C2CCC(=O)NC2=O)C3=O)c1-c1ccc(Cl)cc1` (stereo not shown) [Example 216]: on CK1α, the “CK1α Ymin” value is listed as “E (E = >25-75% remaining)” and the DC50 was under 25 nM. Besides, on GSPT1, the DC50 is at least 25 nM and the “GSPT1 Ymin” value was “F (F = >75-100% remaining)”.

Take `CN1CCN(c2ccc(-c3c(-c4ccc5c(c4)CN(C4CCC(=O)NC4=O)C5=O)cnn3C)cc2)CC1` (stereo not shown) [Example 217]: on CK1α, the “CK1α Ymin” value is on record as “D (D = >10- 25% remaining)” and the DC50 is under 25 nM. Also, on GSPT1, the DC50 is at least 25 nM and the “GSPT1 Ymin” value was “F (F = >75-100% remaining)”.
